Laboratory results taken from the NIST ThermoML archive (doi:10.1016/j.jct.2019.02.011).

Experiment: xn = mol fraction of the nth substance listed
Details: Liquid, Vibrating tube method

COC(=O)OC [dimethyl carbonate] + CCCO
mass density [kg/m3]
Details	100 kPa	5000 kPa	10000 kPa	15000 kPa	20000 kPa	25000 kPa	30000 kPa	35000 kPa	40000 kPa
293.15 K, x1 = 0.0273	–	–	–	821.94	825.23	828.56	831.57	834.42	837.07
293.15 K, x1 = 0.0506	–	–	–	828.58	831.87	835.25	838.27	841.13	843.83
293.15 K, x1 = 0.0755	–	–	–	835.71	839.06	842.44	845.52	848.42	851.14
293.15 K, x1 = 0.1007	–	–	–	842.9	846.25	849.69	852.76	855.68	858.39
293.15 K, x1 = 0.1495	–	–	–	856.75	860.16	863.6	866.73	869.7	872.48
293.15 K, x1 = 0.2003	–	–	–	871.06	874.53	878.01	881.2	884.18	887.03
293.15 K, x1 = 0.2529	–	–	882.09	885.77	889.3	892.84	896.04	899.12	902.04
293.15 K, x1 = 0.2993	–	–	894.95	898.64	902.18	905.76	909.02	912.16	915.09
293.15 K, x1 = 0.3497	–	–	908.71	912.45	916.05	919.68	923	926.2	929.19
293.15 K, x1 = 0.401	–	–	922.59	926.38	930.03	933.72	937.09	940.3	943.36
293.15 K, x1 = 0.4509	–	–	936.03	939.87	943.59	947.28	950.71	953.97	957.05
293.15 K, x1 = 0.5002	–	–	949.24	953.09	956.87	960.6	964.04	967.36	970.51
293.15 K, x1 = 0.5498	–	–	962.47	966.32	970.1	973.84	977.34	980.72	983.88
293.15 K, x1 = 0.5996	–	–	975.61	979.51	983.36	987.15	990.65	994.04	997.26
293.15 K, x1 = 0.6499	–	–	988.81	992.77	996.62	1000.46	1004.03	1007.42	1010.66
293.15 K, x1 = 0.7006	–	–	1002.08	1006.04	1009.95	1013.8	1017.37	1020.81	1024.12
293.15 K, x1 = 0.7471	–	–	1014.07	1018.08	1022.06	1025.95	1029.53	1032.98	1036.36
293.15 K, x1 = 0.7989	–	–	1027.41	1031.43	1035.41	1039.31	1042.94	1046.46	1049.84
293.15 K, x1 = 0.8491	–	–	1040.37	1044.44	1048.43	1052.38	1056.08	1059.59	1063.05
293.15 K, x1 = 0.8993	–	–	1053.34	1057.42	1061.47	1065.42	1069.12	1072.65	1076.12
293.15 K, x1 = 0.9249	–	–	1059.86	1063.94	1067.99	1071.94	1075.65	1079.23	1082.7
293.15 K, x1 = 0.9489	–	–	1065.93	1070.01	1074.07	1078.02	1081.73	1085.31	1088.8
293.15 K, x1 = 0.9743	–	–	1072.35	1076.43	1080.5	1084.5	1088.21	1091.8	1095.29
293.15 K, x1 = 1	–	–	1078.93	1083.01	1087.08	1091.03	1094.75	1098.34	1101.84
298.15 K, x1 = 0.0273	807.06	810.99	814.7	818.11	821.44	–	–	–	–
298.15 K, x1 = 0.0506	813.55	817.52	821.28	824.74	828.12	–	–	–	–
298.15 K, x1 = 0.0755	820.52	824.54	828.31	831.81	835.25	–	–	–	–
298.15 K, x1 = 0.1007	827.5	831.52	835.34	838.84	842.29	–	–	–	–
298.15 K, x1 = 0.1495	841.12	845.19	849.06	852.61	856.13	–	–	–	–
298.15 K, x1 = 0.2003	855.15	859.27	863.19	866.8	870.37	–	–	–	–
298.15 K, x1 = 0.2529	869.54	873.66	877.64	881.29	884.88	–	–	–	–
298.15 K, x1 = 0.2993	882.18	886.34	890.38	894.08	897.73	–	–	–	–
298.15 K, x1 = 0.3497	895.71	899.93	904.02	907.77	911.48	–	–	–	–
298.15 K, x1 = 0.401	909.36	913.63	917.77	921.57	925.35	–	–	–	–
298.15 K, x1 = 0.4509	922.58	926.89	931.09	934.95	938.74	–	–	–	–
298.15 K, x1 = 0.5002	935.57	939.93	944.14	948.04	951.89	–	–	–	–
298.15 K, x1 = 0.5498	948.57	952.93	957.19	961.1	–	–	–	–	–
298.15 K, x1 = 0.5996	961.54	965.95	970.21	974.17	–	–	–	–	–
298.15 K, x1 = 0.6499	974.52	978.92	983.24	987.25	–	–	–	–	–
298.15 K, x1 = 0.7006	987.56	992.01	996.39	1000.44	–	–	–	–	–
298.15 K, x1 = 0.7471	999.38	1003.88	1008.26	1012.37	–	–	–	–	–
298.15 K, x1 = 0.7989	1012.54	1017.09	1021.53	1025.64	–	–	–	–	–
298.15 K, x1 = 0.8491	1025.27	1029.83	1034.32	1038.48	–	–	–	–	–
298.15 K, x1 = 0.8993	1038.07	1042.62	1047.12	1051.28	–	–	–	–	–
298.15 K, x1 = 0.9249	1044.52	1049.07	1053.57	1057.78	–	–	–	–	–
298.15 K, x1 = 0.9489	1050.53	1055.08	1059.58	1063.79	–	–	–	–	–
298.15 K, x1 = 0.9743	1056.89	1061.44	1065.95	1070.16	–	–	–	–	–
298.15 K, x1 = 1	1063.45	1068	1072.51	1076.72	–	–	–	–	–
